# Assay results as given in patent US8609610B2, “Inhibitors of the trypsin-like site of the proteasome and methods of use thereof” (Trustees of Dartmouth College, priority 2011, dated 2013).
# Where two headings read alike, the source gives them in different places.
# Legend:
# β2 and β2i sites = experiment: MV-151 label-competition in extracts of RPMI-8226 MM cells; format: biochemical; conditions: extracts of RPMI-8226 cells, MV-151 probe
# From the text: Multiple myeloma cells express constitutive proteasomes and immunoproteasomes, and substrates used for the measurement of activity were cleaved by both. To determine whether there were any differences in inhibition of constitutive proteasomes or immunoproteasomes by NC-002, NC-012, and NC-022, the fluorescent activity-based probe MV-151 (Verdoes, et al. (2006) Chem. Biol. 13:1217-1226) was used in a label-competition experiment. Extracts of RPMI-8226 MM cells (which express more immunoproteasomes than NCI-H929 cells) were treated first with the NC inhibitors and then with the MV-151 probe. This was followed by fractionation on SDS-PAGE to separate proteasome subunits and imaging to reveal those subunits labeled by the probe (i.e., unmodified by the inhibitors).
# [1] = target: T1, chymotrypsin-like site of 26S proteasomes (Oryctolagus cuniculus, UniProt G1T4Q9); experiment: Inhibition of purified 26S proteasomes, substrate Suc-LLVY-amc; format: biochemical, rabbit; conditions: >>30 no inhibition at 30 μM, >30 inhibition between 10 and 50% at 30 μM, read-out: IC50 for sites in 26S proteasomes: Chym-L
# T1 sequence (G1T4Q9 1-263): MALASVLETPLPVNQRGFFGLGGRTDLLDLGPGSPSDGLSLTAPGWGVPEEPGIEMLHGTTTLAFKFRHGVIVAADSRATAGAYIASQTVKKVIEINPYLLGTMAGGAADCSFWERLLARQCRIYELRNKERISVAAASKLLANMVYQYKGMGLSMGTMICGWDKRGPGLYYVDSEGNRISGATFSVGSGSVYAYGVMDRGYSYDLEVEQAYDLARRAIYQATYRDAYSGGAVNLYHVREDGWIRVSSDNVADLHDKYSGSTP
# [2] = test system: MM cell lines NCI-H929, MM1.R, RPMI-8226, KMS-18, KMS-12-BM; experiment: ALAMAR BLUE viability, panel of MM cell lines; format: cell-based
# Protocol: (§1) RPMI-8226 and NCI-H929 cells were cultured in RPMI-1640 supplemented with 10% fetal bovine serum, penicillin, streptomycin, and plasmocin in 5% CO2 humidified incubator. HEK-293T cells were cultured in DMEM containing 10% fetal calf serum, 10 units/mL penicillin, and 10 μg/mL streptomycin in a 7% CO2 humidified incubator. Viability of multiple myeloma cells was measured with ALAMAR BLUE mitochondrial dye conversion assay. Viability of peripheral blood mononuclear cells (PBMNCs) was measured using CELL TITER-GLO luminescent cell viability assay (Promega), which is based on quantification of ATP present in the cells. Caspase-3/7 activity was measured using APO-ONE 3/7 homogeneous assay (Promega).
# In a parallel set of experiments, it was tested whether co-inhibiting caspase-like and trypsin-like sites suffices to induce cytotoxicity in the absence of inhibition of the chymotrypsin-like sites and whether such dual inhibition is a stronger sensitizer to LU-005 than inhibition of the trypsin-like sites alone. Four additional myeloma cell lines, MM1.R, RPMI-8226, KMS-18, and KMS-12-BM, were selected for these experiments. These cell lines vary up to 40-fold in their sensitivity to bortezomib and NC-005 (Britton, et al. (2009) supra). In all experiments, NC-022 was used at a concentration that inhibited trypsin-like activity by more than 90% after a 6-hour incubation.
# [3] = target: T2, caspase-like sites (β1) of proteasome in MM cells (Homo sapiens, UniProt P28072+Q99436); experiment: PROTEASOMEGLO assay of proteasome inhibition in MM cells; format: cell-based; conditions: 6 hours, >>30 no inhibition at 30 μM, >30 inhibition 10-50% at 30 μM, read-out: IC50 for sites: Casp-L
# T2 sequence (P28072 35-239): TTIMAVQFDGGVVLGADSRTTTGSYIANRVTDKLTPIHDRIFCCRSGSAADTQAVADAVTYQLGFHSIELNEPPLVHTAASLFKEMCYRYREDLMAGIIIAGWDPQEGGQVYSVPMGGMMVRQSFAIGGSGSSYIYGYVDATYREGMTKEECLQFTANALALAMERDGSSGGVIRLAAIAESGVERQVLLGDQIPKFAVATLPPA
# T2 sequence (Q99436 44-277): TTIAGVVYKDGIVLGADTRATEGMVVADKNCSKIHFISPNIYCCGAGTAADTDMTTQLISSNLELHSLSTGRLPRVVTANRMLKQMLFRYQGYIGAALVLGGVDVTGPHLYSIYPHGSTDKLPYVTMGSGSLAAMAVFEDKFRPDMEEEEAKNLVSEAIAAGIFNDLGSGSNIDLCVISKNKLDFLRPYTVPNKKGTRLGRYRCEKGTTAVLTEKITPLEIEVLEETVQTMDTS
# [4] = target: caspase-like site of 26S proteasomes (Oryctolagus cuniculus, UniProt A0A5F9DQW2); experiment: Inhibition of purified 26S proteasomes, substrate Ac-nLPnLD-amc; format: biochemical, rabbit; conditions: >>30 no inhibition at 30 μM, >30 inhibition between 10 and 50% at 30 μM, read-out: IC50 for sites in 26S proteasomes: Casp-L
# [5] = test system: peripheral blood mononuclear cells (PBMNCs); experiment: CELL TITER-GLO viability of PBMNCs; format: cell-based; conditions: cells from three donors
# Protocol: as §1
# caspase-like site of 26S proteasomes, sequence (A0A5F9DQW2 1-212): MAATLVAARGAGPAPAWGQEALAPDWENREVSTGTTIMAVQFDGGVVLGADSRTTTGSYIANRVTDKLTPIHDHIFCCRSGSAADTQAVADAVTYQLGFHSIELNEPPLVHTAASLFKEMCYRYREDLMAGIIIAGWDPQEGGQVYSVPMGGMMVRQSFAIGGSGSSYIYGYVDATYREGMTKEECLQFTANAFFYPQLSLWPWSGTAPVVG
smiles,measurement,setting,value
"Cc1c(O)cccc1C(=O)N[C@H](C(=O)N[C@@H](CO)C(=O)N[C@@H](CCCNC(=N)N)C(=O)[C@@]1(C)CO1)C(C)C [NC-022, HMB-Val-Ser-Arg-ek]",inhibition of constitutive (β2) versus immunoproteasome (β2i) trypsin-like sites,β2 and β2i sites,equipotent inhibitors of the trypsin-like sites of constitutive and immunoproteasomes
same,IC50,[1],1.7 µM
same,sensitization to LU-005 compared with NC-001,[2]; NCI-H929 and KMS-12-BM,more potent sensitizer than NC-001
same,reduction of the IC50 for LU-005,"[2]; all MM cell lines, NC-022 at concentration inhibiting trypsin-like activity >90% after 6 h",4-10 fold
same,reduction of cell viability,"[2]; continuous exposure to mixture of NC-022 and NC-001, both sites blocked by more than 90%",20-50%
same,sensitization of MM cells to LU-005,[2]; mixture of NC-001 and NC-022 after 1 hour LU-005,much stronger sensitizer than NC-022 alone
same,IC50,[3]; NCI-H929 cells,> 30 µM
same,IC50,[3]; RPMI-8226 cells,> 30 µM
same,IC50,[4],16 µM
same,sensitization of PBMNCs to bortezomib and carfilzomib,[5],did not sensitize cells
